Source: publication PMC12510174 (International Journal of Biological Sciences, 2025)

Legend:
[1] = test system: WERI-Rb1 orthotopic RB model; details: mouse, in vivo
[2] = test system: WERI-Rb1 orthotopic RB model; details: mouse, in vivo; remark: listed apart in the source
retinoblastoma = details: human, in vivo; cited from earlier work
[3] = mouse, in vivo
[4] = test system: WERI-Rb1 orthotopic RB model; details: mouse, in vivo; remark: listed apart in the source
[5] = test system: WERI-Rb1 orthotopic RB model; details: mouse, in vivo; remark: listed apart in the source

Structure (SMILES)	FITC-labeled Pri-MP uptake (Endocytosis species) alone or with added inhibitor (WERI-Rb1)	FITC-labeled Pri-MP uptake (Endocytosis species) alone or with added inhibitor (Y79)	reduction of Pri-MP uptake relative to vehicle controls (RB cells)	also measured
N[C@@H](Cc1ccc(N(CCCl)CCCl)cc1)C(=O)O [Melphalan]	–	–	–	reduction of tumor burden (tumor area) [1]: 82.6%; increase of p53 expression relative to the Control group [2]: 71%; overall globe salvage rate (retinoblastoma): 66.4%; alanine aminotransferase and aspartate aminotransferase levels [3]: did not significantly deviate from the Control group; body weight during treatment [3]: no significant difference; TUNEL positivity relative to the Control group [4]: 1.77 fold; decrease of Ki-67 expression relative to the control [5]: about 30.3%
N=C(N)NC(=O)c1nc(Cl)c(N)nc1N [amiloride]	22.9%	29.8%	–	inhibitory effect on Pri-MP uptake (WERI-Rb1): 73.0%; inhibitory effect on Pri-MP uptake (Y79): 64.5%
CN(C)CCCN1c2ccccc2Sc2ccc(Cl)cc21 [chlorpromazine]	87.0%	87.6%	< 10%	–
C=C1[C@@H](C)[C@H]2[C@H](Cc3ccccc3)NC(=O)[C@]23[C@H](OC(C)=O)/C=C/[C@@](C)(O)C(=O)[C@@H](C)C/C=C/[C@H]3[C@@H]1O [cytochalasin D]	38.4%	22.3%	–	inhibitory effect on Pri-MP uptake (WERI-Rb1): 55.4%; inhibitory effect on Pri-MP uptake (Y79): 72.4%
O=C(N/N=C/c1ccc(O)c(O)c1)c1cc2ccccc2cc1O [dynasore]	70.1%	73.8%	< 10%	–
CCCCC[C@@H](O)[C@H]1C(=O)O[C@H](C)[C@@H](O)/C=C/C=C/C=C/C=C/C=C(\C)[C@@H](O)C[C@H](O)C[C@H](O)C[C@H](O)C[C@H](O)C[C@H](O)C[C@@H]1O [filipin]	84.8%	78.6%	< 10%	–
O=c1c(-c2ccc(O)cc2)coc2cc(O)cc(O)c12 [genistein]	87.0%	85.2%	–	–
